Organism: Rattus norvegicus
Experiment: Open TG-GATES - Regimen: Single
Type: toxicity, organism-based, Sprague-Dawley
Set-up: regimen Single, gender Male, age 6 weeks
Conditions: in vivo, po, route gavage; for TP / gamma-GTP / ALP / ALT / AST / BUN / CRE / Ca / Cl / DBIL / GLC / IP / K / LDH / Na / PL / RALB / TBIL / TC / TG: tissue Plasma; for APTT / Bas / Eos / Fbg / Hb / Ht / Lym / MCH / MCHC / MCV / Mono / Neu / PT / Plat / RBC / Ret / WBC: tissue Blood; for KIDNEY_L / KIDNEY_R / KIDNEY_TOTAL: tissue Kidney; for LIVER: tissue Liver
[1] = 300 mg/kg, 24 h, dose level Low
[2] = 1000 mg/kg, 3 h, dose level Middle
[3] = 1000 mg/kg, 6 h, dose level Middle
[4] = 1000 mg/kg, 9 h, dose level Middle
[5] = 1000 mg/kg, 24 h, dose level Middle
[6] = 2000 mg/kg, 3 h, dose level High
[7] = 2000 mg/kg, 6 h, dose level High
[8] = 2000 mg/kg, 9 h, dose level High
[9] = 2000 mg/kg, 24 h, dose level High

## CCOc1ccc(NC(C)=O)cc1 [PHENACETIN]
[1]
  TP: 5.7 g/dL
  gamma-GTP: 1.2 IU/L
[2]
  TERMINAL_BW: 211.4 g
  APTT: 16.8 s
  Bas: 0%
  Eos: 1%
  Fbg: 302.8 mg/dL
  Hb: 13.4 g/dL
  Ht: 39.6%
  Lym: 75.6%
  MCH: 20.9 pg
  MCHC: 33.9%
  MCV: 61.6 fL
  Mono: 2.8%
  Neu: 20.4%
  PT: 13.9 s
  Plat: 119.7 x10_4/uL
  RBC: 643.4 x10_4/ul
  Ret: 8.8%
  WBC: 62.5 x10_2/uL
  KIDNEY_L: 0.9 g
  KIDNEY_R: 0.9 g
  KIDNEY_TOTAL: 1.8 g
  LIVER: 9.2 g
  ALP: 1732.2 IU/L
  ALT: 35 IU/L
  AST: 69 IU/L
  BUN: 9.4 mg/dL
  CRE: 0.1 mg/dL
  Ca: 11 mg/dL
  Cl: 100.4 meq/L
  DBIL: 0 mg/dL
  GLC: 232 mg/dL
  IP: 10.8 mg/dL
  K: 3.6 meq/L
  LDH: 64.8 IU/L
  Na: 139.8 meq/L
  PL: 150.8 mg/dL
  RALB: 2.6 g/dL
  TBIL: 0.032 mg/dL
  TC: 87 mg/dL
  TG: 50.6 mg/dL
  TP: 5.5 g/dL
  gamma-GTP: 1.4 IU/L
[3]
  TERMINAL_BW: 206.1 g
  APTT: 18 s
  Bas: 0%
  Eos: 0.2%
  Fbg: 311.4 mg/dL
  Hb: 13.9 g/dL
  Ht: 40.7%
  Lym: 73.2%
  MCH: 21.1 pg
  MCHC: 34.2%
  MCV: 61.6 fL
  Mono: 2%
  Neu: 24.2%
  PT: 14.2 s
  Plat: 124.9 x10_4/uL
  RBC: 661 x10_4/ul
  Ret: 9%
  WBC: 54.6 x10_2/uL
  KIDNEY_L: 0.9 g
  KIDNEY_R: 0.9 g
  KIDNEY_TOTAL: 1.9 g
  LIVER: 8.8 g
  ALP: 1388 IU/L
  ALT: 40.4 IU/L
  AST: 76 IU/L
  BUN: 11.2 mg/dL
  CRE: 0.1 mg/dL
  Ca: 10.9 mg/dL
  Cl: 102.6 meq/L
  DBIL: 0 mg/dL
  GLC: 188.4 mg/dL
  IP: 9.8 mg/dL
  K: 4 meq/L
  LDH: 73.6 IU/L
  Na: 139.2 meq/L
  PL: 151.8 mg/dL
  RALB: 2.6 g/dL
  TBIL: 0.04 mg/dL
  TC: 94.2 mg/dL
  TG: 23.4 mg/dL
  TP: 5.6 g/dL
  gamma-GTP: 1.2 IU/L
[4]
  TERMINAL_BW: 205.3 g
  APTT: 17.2 s
  Bas: 0%
  Eos: 1%
  Fbg: 302.6 mg/dL
  Hb: 14 g/dL
  Ht: 40.8%
  Lym: 76.2%
  MCH: 21.1 pg
  MCHC: 34.3%
  MCV: 61.4 fL
  Mono: 3.4%
  Neu: 18.6%
  PT: 14.1 s
  Plat: 120 x10_4/uL
  RBC: 664.6 x10_4/ul
  Ret: 8.5%
  WBC: 49.5 x10_2/uL
  KIDNEY_L: 0.9 g
  KIDNEY_R: 0.9 g
  KIDNEY_TOTAL: 1.9 g
  LIVER: 8.8 g
  ALP: 1337.2 IU/L
  ALT: 38.6 IU/L
  AST: 70.2 IU/L
  CRE: 0.1 mg/dL
  Ca: 10.9 mg/dL
  Cl: 101.6 meq/L
  DBIL: 0.006 mg/dL
  GLC: 205.2 mg/dL
  IP: 9 mg/dL
  K: 3.9 meq/L
  LDH: 82 IU/L
  PL: 160.6 mg/dL
  RALB: 2.6 g/dL
  TBIL: 0.046 mg/dL
  TC: 95.2 mg/dL
  TG: 32.6 mg/dL
  TP: 5.6 g/dL
  gamma-GTP: 1.2 IU/L
[5]
  TERMINAL_BW: 204.2 g
  APTT: 17 s
  Bas: 0%
  Eos: 1%
  Fbg: 291.6 mg/dL
  Hb: 13.4 g/dL
  Ht: 40.1%
  Lym: 69%
  MCH: 20.5 pg
  MCHC: 33.5%
  MCV: 61.2 fL
  Mono: 3.2%
  Neu: 26.2%
  Plat: 127.8 x10_4/uL
  RBC: 654.4 x10_4/ul
  Ret: 7.5%
  WBC: 82.6 x10_2/uL
  KIDNEY_L: 1 g
  KIDNEY_R: 1 g
  KIDNEY_TOTAL: 1.9 g
  LIVER: 8.7 g
  ALP: 1673.4 IU/L
  ALT: 53.6 IU/L
  AST: 118.8 IU/L
  BUN: 13.6 mg/dL
  CRE: 0.2 mg/dL
  Ca: 10.9 mg/dL
  Cl: 105 meq/L
  DBIL: 0.038 mg/dL
  GLC: 167 mg/dL
  IP: 9.2 mg/dL
  K: 4.6 meq/L
  LDH: 202.2 IU/L
  Na: 141.6 meq/L
  PL: 166.6 mg/dL
  RALB: 2.6 g/dL
  TBIL: 0.052 mg/dL
  TC: 97.2 mg/dL
  TG: 92.4 mg/dL
  TP: 5.6 g/dL
  gamma-GTP: 1.2 IU/L
[6]
  TERMINAL_BW: 214.4 g
  APTT: 17.5 s
  Bas: 0%
  Eos: 1%
  Fbg: 307.2 mg/dL
  Hb: 13.9 g/dL
  Ht: 41%
  Lym: 76.8%
  MCH: 21.2 pg
  MCHC: 33.8%
  Mono: 2.8%
  Neu: 19%
  PT: 14.2 s
  Plat: 115.4 x10_4/uL
  RBC: 652.4 x10_4/ul
  Ret: 9%
  WBC: 60.2 x10_2/uL
  KIDNEY_L: 0.9 g
  KIDNEY_R: 1 g
  KIDNEY_TOTAL: 1.9 g
  LIVER: 9.2 g
  ALP: 1540.4 IU/L
  ALT: 39.8 IU/L
  AST: 70.4 IU/L
  BUN: 10.2 mg/dL
  CRE: 0.1 mg/dL
  Ca: 11 mg/dL
  Cl: 99.4 meq/L
  DBIL: 0 mg/dL
  GLC: 240.4 mg/dL
  K: 3.7 meq/L
  LDH: 78 IU/L
  Na: 139 meq/L
  RALB: 2.6 g/dL
  TBIL: 0.034 mg/dL
  TG: 47.4 mg/dL
  TP: 5.5 g/dL
  gamma-GTP: 1 IU/L
[7]
  TERMINAL_BW: 209.5 g
  Bas: 0%
  Eos: 0.4%
  Fbg: 308.8 mg/dL
  Ht: 40.1%
  Lym: 74.2%
  MCH: 21.2 pg
  MCV: 61.4 fL
  Mono: 2.2%
  PT: 14.2 s
  Plat: 115.7 x10_4/uL
  RBC: 653.8 x10_4/ul
  Ret: 8.4%
  WBC: 47.7 x10_2/uL
  KIDNEY_L: 0.9 g
  KIDNEY_R: 0.9 g
  KIDNEY_TOTAL: 1.8 g
  LIVER: 9.1 g
  ALP: 1249 IU/L
  ALT: 45.6 IU/L
  AST: 84 IU/L
  BUN: 10.2 mg/dL
  CRE: 0.1 mg/dL
  Ca: 11.1 mg/dL
  Cl: 103 meq/L
  DBIL: 0 mg/dL
  GLC: 192.2 mg/dL
  IP: 9.9 mg/dL
  K: 3.8 meq/L
  LDH: 93.2 IU/L
  Na: 139.2 meq/L
  PL: 136.4 mg/dL
  RALB: 2.7 g/dL
  TBIL: 0.032 mg/dL
  TC: 83.8 mg/dL
  TP: 5.6 g/dL
  gamma-GTP: 1.2 IU/L
[8]
  TERMINAL_BW: 210.8 g
  APTT: 16.8 s
  Bas: 0%
  Eos: 0.4%
  Fbg: 288.4 mg/dL
  Hb: 13.3 g/dL
  Ht: 38.1%
  Lym: 73.6%
  MCH: 20.9 pg
  MCHC: 35%
  MCV: 59.8 fL
  Mono: 3.2%
  Neu: 22%
  PT: 14.3 s
  Plat: 123.9 x10_4/uL
  RBC: 638.6 x10_4/ul
  Ret: 8.7%
  WBC: 54.6 x10_2/uL
  KIDNEY_L: 0.9 g
  KIDNEY_R: 0.9 g
  KIDNEY_TOTAL: 1.8 g
  LIVER: 9 g
  ALP: 1259 IU/L
  ALT: 40.6 IU/L
  AST: 70.8 IU/L
  BUN: 10.2 mg/dL
  CRE: 0.1 mg/dL
  Ca: 10.9 mg/dL
  Cl: 101.2 meq/L
  DBIL: 0 mg/dL
  GLC: 205.6 mg/dL
  IP: 9.1 mg/dL
  K: 3.6 meq/L
  LDH: 66.8 IU/L
  Na: 137.6 meq/L
  PL: 163 mg/dL
  RALB: 2.5 g/dL
  TBIL: 0.034 mg/dL
  TC: 99.6 mg/dL
  TG: 18 mg/dL
  TP: 5.5 g/dL
  gamma-GTP: 1.6 IU/L
[9]
  TERMINAL_BW: 193.2 g
  APTT: 18.2 s
  Bas: 0.6%
  Eos: 0.6%
  Fbg: 273.4 mg/dL
  Hb: 14.2 g/dL
  Ht: 41.5%
  Lym: 75%
  MCH: 20.8 pg
  MCHC: 34.2%
  MCV: 60.7 fL
  Mono: 2.6%
  Neu: 20.8%
  PT: 14.5 s
  Plat: 138.6 x10_4/uL
  RBC: 684.2 x10_4/ul
  Ret: 7.5%
  WBC: 70 x10_2/uL
  KIDNEY_L: 0.9 g
  KIDNEY_R: 1 g
  KIDNEY_TOTAL: 1.9 g
  LIVER: 7.5 g
  ALP: 1341.4 IU/L
  ALT: 44.8 IU/L
  AST: 115 IU/L
  BUN: 12 mg/dL
  CRE: 0.2 mg/dL
  Ca: 10.7 mg/dL
  Cl: 104.2 meq/L
  DBIL: 0.024 mg/dL
  GLC: 171.2 mg/dL
  IP: 9.6 mg/dL
  K: 4.3 meq/L
  LDH: 206 IU/L
  Na: 140.8 meq/L
  PL: 150.6 mg/dL
  RALB: 2.7 g/dL
  TBIL: 0.046 mg/dL
  TC: 90.4 mg/dL
  TG: 52.6 mg/dL
  TP: 5.7 g/dL
  gamma-GTP: 1 IU/L

Source: ChEMBL document CHEMBL3885861, “Open TG-GATES”
